The compounds below were run on primary astrocytes (assay: High throughput screening for lactate secretion: acidification of extracellular medium (SNARF5)). Settings: Mus musculus, Astrocyte, 1.5 h; Appendix I; primary screening, 10 uM, 90 min; relative to positive control; read-out: Score.
Format: cell-based, mouse
Description: Primary cultures of cerebrocortical astrocytes were obtained from 1-2-day-old OF1 mouse pups (Charles River Laboratories). Briefly, cortices were isolated and minced in small pieces under a dissecting microscope. The cells were incubated for 30 min at 37° C. in a solution containing 20 U/ml of papain enzyme (Worthington Biochemical), L-cysteine 1 mM (Sigma), and 10 kU/ml DNase I (Worthington Biochemical) for an enzymatic dissociation. Papain activity was stopped by the addition of fetal calf serum (FCS) to the solution, and a single-cell suspension was then obtained by mechanical dissociation, which consisted in cells trituration in a DMEM (D7777, Sigma-Aldrich) medium (supplemented with 44 mm NaHCO3, and 10 ml/L antibiotic/antimycotic solution) containing 10% FCS. The cells were seeded at an average density of 6×10^4 cells/cm^2 in poly-D-lysine-coated 96, 12 or 6-well culture plates, depending on their use, and incubated at 37° C. in a humidified atmosphere containing 5% CO2/95% air. Culture medium was renewed twice per week. Cells were stimulated and harvested between DIV14 and DIV17, when confluence and cell growth were optimal.
Secretion of lactate in a high-throughput screening (HTS) fashion was measured indirectly through the acidification of extracellular medium. To this end, primary astrocytes grown in 96-well plates for 17 days were stimulated with the compounds as listed herein.
After washing the cells twice with stimulation medium (DMEM (D5030, Sigma), 3 mM NaHCO3 and 5 mM Glucose) at 37° C., cells were stimulated with the compounds at a final concentration of 10 uM (1% DMSO final) in 50 ul per well of stimulation medium supplemented with 10 uM of the extracellular pH sensor SNARF-5F %-(AND-6)-CAR (Life Technologies Corporation). Each compound was tested in two different plates for duplicates.
After 90 min stimulation, fluorescence was read at exc. (excitation) 480 nm/emm. (emission) 580 nm and at exc 480 nm/emm. 630 nm. The ratio of fluorescence between 630 nm and 580 emission values, which represents extracellular pH, was calculated.
In each plate, 8 wells were used for negative controls (DMSO) and 8 wells were used for positive controls (CCCP 2 uM in DMSO). Z prime values were calculated for each of the plates tested and values <0 were discarded.
The average and SD of compounds' values tested in duplicates were calculated, and compound was noted as HIT when the difference between compound's average and negative control's average was greater than three times the sum of compound's SD and negative controls' SD. Only scores greater than 40% were considered as lead hits for the CDC54K library; for the remaining libraries, all hits were considered. Scores are calculated as the % of activity compared to the positive control in each plate (which is 100%).
Primary screening hits were cherry picked on new plates and confirmed for SNARF5 effect, after having discarded those compounds that are fluorescent (exc. 480 nm/emm. 580 nm or 630 nm) before stimulation. Extracellular medium was next analyzed for extracellular lactate quantification for secondary screening.
Identification of lactate-enhancing drugs with high throughput screening (HTS) experiments on astrocytes primary cultures using extracellular pH dye (SNARF5F 5-(and 6)-carboxylic acid) for 90 min. The procedure is described in Material and Methods (2. Cell culture, 2.1. HTS for lactate secretion and 2.2. Extracellular lactate quantification).
The procedure was performed as follows: • Primary screening: acidification of the extracellular medium • Primary screening confirmation: acidification of the extracellular medium, removal of compounds with fluorescent activity at exc. 480 nm/emm. 580 nm or 630 nm. • Secondary screening: dosage of extracellular lactate

| Compound | Emax at 10 µM [%] |
| --- | --- |
| O=C(c1ccco1)N1CCCn2nc(-c3ccc(C(F)(F)F)cc3)cc2C1 [T200-0370] | 56.2 |
| CCOc1ccc(-c2cc3n(n2)CCCN(C(=O)c2cccnc2)C3)cc1 [T200-0707] | 16.7 |
| COc1cccc(-c2cc3n(n2)CCCN(Cc2ccncc2)C3)c1 [T202-0973] | 34.1 |
| O=C(C[n+]1cc(-c2ccc(Br)cc2)n2c1CCCCC2)c1ccccc1 [T0500-4648] | 109 |
| O=C(C[n+]1cc(-c2ccccc2)n2c1CCC2)c1ccc(Br)cc1 [T0502-5560] | 102 |
| OC1(c2ccccc2)C[N+](c2ccccc2)=C2SCCCN21 (stereo not shown) [T0507-8442] | 26.8 |
| Fc1ccc(Nc2nc(N3CCOCC3)c3ccccc3n2)cc1 [T0508-5193] | 19.5 |
| O=S(=O)(Nc1ccc(O)c(Cl)c1)c1ccc2ccccc2c1 [T0517-8939] | 76.8 |
| CC(C)OCCCNc1ncnc2c1CCC2 [T636-0027] | 53.6 |
| Cc1ccc(CNc2ncnc3c2CCC3)o1 [T636-0054] | 55.3 |
| c1cncc(CCNc2ncnc3c2CCC3)c1 [T636-0085] | 28.4 |
| COc1cccc(CNc2ncnc3c2CCC3)c1 [T636-0134] | 75.1 |
| CN1CCC(OCCCNc2ncnc3c2CCC3)CC1 [T636-0181] | 22.8 |
| c1coc(CNc2nc(-c3ccncc3)nc3c2CCC3)c1 [T636-0973] | 0 |
| Cc1ccsc1C(=O)NC1CCN(c2ncnc3c2CCC3)C1 (stereo not shown) [T636-1114] | 72.5 |
| O=C(NCc1ccccc1)NC1CCN(c2ncnc3c2CCC3)C1 (stereo not shown) [T636-1210] | 48.9 |
| O=C(NCc1cccc(F)c1)NC1CCN(c2ncnc3c2CCC3)C1 (stereo not shown) [T636-1243] | 45.5 |
| O=S(=O)(NC1CCN(c2ncnc3c2CCC3)C1)c1ccccc1 (stereo not shown) [T636-1250] | 96.4 |
| O=C(c1cccc(F)c1)N1CCC(Nc2ncnc3c2CCC3)CC1 [T636-1601] | 0 |

| Compound | Emax at 10 µM [%] |
| --- | --- |
| c1ccc(CN2CCC(Nc3ncnc4c3CCC4)CC2)nc1 [T636-1715] | 0 |
| Cc1ccc(CN2CCN(c3ncnc4c3CCC4)CC2)o1 [T636-1937] | 74 |
| COc1ccc(CN2CCN(c3ncnc4c3CCC4)CC2)cc1OC [T636-2007] | 102 |
| Cc1ccc(C(=O)N2CCCC(Nc3ncnc4c3CCC4)C2)cn1 (stereo not shown) [T636-2144] | 0 |
| O=C(Cc1cccc(F)c1)N1CCC(Nc2ncnc3c2CCC3)C1 (stereo not shown) [T636-2360] | 44 |
| O=C(c1ccc(Cl)s1)N1CCC(Nc2ncnc3c2CCC3)C1 (stereo not shown) [T636-2391] | 93.2 |
| Cn1nccc1C(=O)N1CCC(Nc2ncnc3c2CCC3)C1 (stereo not shown) [T636-2425] | 22 |
| O=S(=O)(Nc1ccc(F)c(Cl)c1)c1ccc2ccccc2c1 [T5231424] | 67.3 |
| COc1ccccc1S(=O)(=O)Nc1ccc2nc(C)sc2c1 [T5246417] | 24.1 |
| FC(F)(F)c1cccc(CNc2ncnc3sccc23)c1 [T5346988] | 99.6 |
| Clc1ccc(Nc2ncnc3sccc23)cc1 [T5393195] | 36.9 |
| O=S(=O)(Nc1ccc2[nH]ncc2c1)c1ccc(Cl)cc1F [T5436375] | 0 |
| COc1ccc(C2SCCN2S(=O)(=O)c2cccc(C)c2)cc1OC (stereo not shown) [T5463658] | 27.2 |
| Cc1ccc(S(=O)(=O)N2CCSC2c2cccc([N+](=O)[O-])c2)c(C)c1 (stereo not shown) [T5463709] | 24.4 |
| Cc1ccc(S(=O)(=O)N2CCSC2c2ccc([N+](=O)[O-])cc2)c(C)c1 (stereo not shown) [T5464782] | 27.7 |
| Cc1nc2ccc(NS(=O)(=O)c3ccccc3F)cc2s1 [T5511047] | 67 |
| Cn1nc(CC(=O)Nc2cccc(C(=O)NC3CC3)c2)c2ccccc2c1=O [T5543110] | 39.1 |
| Cc1cc(S(=O)(=O)NCc2ccncc2)c(Cl)cc1Cl [T5581430] | 47.2 |
| Cc1nc(-c2cccc(NS(=O)(=O)c3ccc(N4CCCC4=O)cc3)c2)cs1 [T5599698] | 85.6 |

Same assay, conditions: Mus musculus, Astrocyte, 1.5 h; Prestwick hits; 10 uM, 90 min; activity relative to positive control CCCP 2 uM; read-out: Score

| Compound | Emax at 10 µM [%] |
| --- | --- |
| Cc1cc(/C=C/c2ccc3cc(N(C)C)ccc3[n+]2C)c(C)n1-c1ccccc1 [Pyrvinium pamoate] | 99.1 |

Same assay, conditions: Mus musculus, Astrocyte, 1.5 h; Prestwick hits; 10 uM, 90 min; relative to positive control CCCP 2 uM; read-out: HTS Score (lactate)

| Compound | Emax at 10 µM [%] |
| --- | --- |
| Cc1cc(/C=C/c2ccc3cc(N(C)C)ccc3[n+]2C)c(C)n1-c1ccccc1 [Pyrvinium pamoate] | 99.1 |

Source: patent publication US12274703B2, “Compositions and methods of treatment for neurological disorders comprising a dementia” (Gliapharm SA, priority 2017, dated 2025)
